Laboratory results from ChEMBL document CHEMBL5154788 (Eur J Med Chem, 2022).
Converted amounts (≈) assume the structure as drawn. Each block holds one compound with its values, some of them ahead of it.

Key:
[1] = biological target: Transient receptor potential cation channel subfamily V member 1 (Homo sapiens, UniProt Q8NER1); assay: Antagonist activity at human TRPV1 expressed in CHO cells assessed as inhibition of capsaicin-induced Ca2+ influx incubated for 30 mins by FLIPR method; type: cell-based
Chain of Transient receptor potential cation channel subfamily V member 1 (Q8NER1 whole entry): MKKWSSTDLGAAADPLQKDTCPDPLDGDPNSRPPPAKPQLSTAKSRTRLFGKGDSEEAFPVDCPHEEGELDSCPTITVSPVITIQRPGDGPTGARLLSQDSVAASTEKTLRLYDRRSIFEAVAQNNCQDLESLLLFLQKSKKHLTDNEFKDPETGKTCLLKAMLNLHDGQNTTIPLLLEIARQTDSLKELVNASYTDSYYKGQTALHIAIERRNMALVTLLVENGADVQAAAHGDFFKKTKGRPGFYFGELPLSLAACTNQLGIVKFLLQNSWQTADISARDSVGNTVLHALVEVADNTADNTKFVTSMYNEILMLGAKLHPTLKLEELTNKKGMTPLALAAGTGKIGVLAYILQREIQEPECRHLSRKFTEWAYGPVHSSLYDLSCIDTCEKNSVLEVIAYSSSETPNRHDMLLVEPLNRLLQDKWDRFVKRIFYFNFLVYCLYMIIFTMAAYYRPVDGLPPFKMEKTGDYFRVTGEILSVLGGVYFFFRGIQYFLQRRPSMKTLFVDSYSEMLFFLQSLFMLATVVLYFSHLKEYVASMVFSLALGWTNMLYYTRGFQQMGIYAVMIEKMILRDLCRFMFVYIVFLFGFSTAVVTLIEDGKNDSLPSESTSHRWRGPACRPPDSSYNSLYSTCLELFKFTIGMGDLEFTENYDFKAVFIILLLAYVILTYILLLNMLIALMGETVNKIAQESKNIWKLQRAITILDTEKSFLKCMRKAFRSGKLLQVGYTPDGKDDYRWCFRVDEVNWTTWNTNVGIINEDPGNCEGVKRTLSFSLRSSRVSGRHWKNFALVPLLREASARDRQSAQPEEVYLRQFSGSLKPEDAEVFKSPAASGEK

[2] = Elimination rate constant half life (k10) in Sprague-Dawley rat at 20 mg/kg, po measured after 12 hrs by UPLC-QTOF/MS analysis; type: ADME, organism-based; details: in vivo, read-out: beta t1/2 (converted)
[3] = Oral bioavailability in Sprague-Dawley rat at 20 mg/kg measured after 12 hrs by UPLC-QTOF/MS analysis; type: ADME, organism-based; details: in vivo
[4] = Clearance in Sprague-Dawley rat at 20 mg/kg, po measured after 12 hrs by UPLC-QTOF/MS analysis; type: ADME, organism-based; details: in vivo
[5] = Half life in Sprague-Dawley rat at 10 mg/kg, iv measured after 12 hrs by UPLC-QTOF/MS analysis; type: ADME, organism-based; details: in vivo
[6] = Toxicity in rat assessed as effect on body temperature at 10 to 100 mg/kg, po measured for 120 mins by electric probe thermometer analysis; type: organism-based; details: in vivo, 2 h, dose 10-100 mg/kg
[7] = Cmax in Sprague-Dawley rat at 20 mg/kg, po measured after 12 hrs by UPLC-QTOF/MS analysis; type: ADME, organism-based; design: dose 20 mg/kg, time 12 hrs, route po; details: in vivo
[8] = AUC (0 to infinity) in Sprague-Dawley rat at 20 mg/kg, po by UPLC-QTOF/MS analysis; type: ADME, organism-based; design: time infinity, dose 20 mg/kg, route po; details: in vivo
[9] = Clearance in Sprague-Dawley rat at 10 mg/kg, iv measured after 12 hrs by UPLC-QTOF/MS analysis; type: ADME, organism-based; details: in vivo
[10] = Tmax in Sprague-Dawley rat at 20 mg/kg, po measured after 12 hrs by UPLC-QTOF/MS analysis; type: ADME, organism-based; details: in vivo
[11] = MRT in Sprague-Dawley rat at 20 mg/kg, po measured after 12 hrs by UPLC-QTOF/MS analysis; type: ADME, organism-based; details: in vivo
[12] = Drug concentration in rat brain at 10 mg/kg, iv measured after 0.5 hrs by HPLC analysis; type: ADME, organism-based; details: read-out: Ct
[13] = biological target: T1, Transient receptor potential cation channel subfamily V member 3 (Homo sapiens, UniProt Q8NET8); assay: Antagonist activity against human TRPV3 expressed in HEK293 cells assessed as inhibition of 2-APb induced intracellular calcium accumulation incubated for 30 mins by FLIPR assay; type: cell-based
T1 sequence (Q8NET8 whole entry): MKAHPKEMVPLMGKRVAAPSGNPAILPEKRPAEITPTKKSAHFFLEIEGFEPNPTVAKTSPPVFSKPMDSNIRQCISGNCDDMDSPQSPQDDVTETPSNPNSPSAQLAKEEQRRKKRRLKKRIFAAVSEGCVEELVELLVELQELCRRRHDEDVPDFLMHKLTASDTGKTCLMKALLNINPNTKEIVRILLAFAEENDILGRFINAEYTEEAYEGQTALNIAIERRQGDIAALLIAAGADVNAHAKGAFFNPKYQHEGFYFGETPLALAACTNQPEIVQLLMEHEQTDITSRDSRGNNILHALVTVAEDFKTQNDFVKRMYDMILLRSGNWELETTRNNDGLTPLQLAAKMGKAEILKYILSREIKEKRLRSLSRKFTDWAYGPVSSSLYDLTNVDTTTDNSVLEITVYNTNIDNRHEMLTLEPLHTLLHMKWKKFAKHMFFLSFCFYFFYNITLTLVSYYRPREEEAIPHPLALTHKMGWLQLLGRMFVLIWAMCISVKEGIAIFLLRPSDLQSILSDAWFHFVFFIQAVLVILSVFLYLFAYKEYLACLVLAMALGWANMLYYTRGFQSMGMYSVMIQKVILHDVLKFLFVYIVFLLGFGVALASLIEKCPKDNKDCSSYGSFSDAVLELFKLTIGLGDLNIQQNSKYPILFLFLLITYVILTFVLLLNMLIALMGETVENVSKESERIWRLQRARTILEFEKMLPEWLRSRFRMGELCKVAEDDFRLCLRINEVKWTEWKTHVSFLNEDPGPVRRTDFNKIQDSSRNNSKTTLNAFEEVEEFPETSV

[14] = Elimination rate constant (K10) in Sprague-Dawley rat at 10 mg/kg, iv measured after 12 hrs by UPLC-QTOF/MS analysis; type: ADME, organism-based; details: in vivo
[15] = Aqueous solubility of compound at pH 7.4 incubated for 2 hrs by LC-UV/MS analysis; type: physicochemical; details: buffer
[16] = Ratio of drug level in brain to plasma in rat at 10 mg/kg, iv measured after 0.5 hrs by HPLC analysis; type: ADME, organism-based; details: read-out: BPR
[17] = biological target: Transient receptor potential cation channel subfamily A member 1 (Homo sapiens, UniProt O75762); assay: Antagonist activity against human TRPA1 expressed in HEK293 cells assessed as inhibition of AITC-induced intracellular calcium accumulation incubated for 30 mins by FLIPR assay; type: cell-based
Chain of Transient receptor potential cation channel subfamily A member 1 (O75762 whole entry): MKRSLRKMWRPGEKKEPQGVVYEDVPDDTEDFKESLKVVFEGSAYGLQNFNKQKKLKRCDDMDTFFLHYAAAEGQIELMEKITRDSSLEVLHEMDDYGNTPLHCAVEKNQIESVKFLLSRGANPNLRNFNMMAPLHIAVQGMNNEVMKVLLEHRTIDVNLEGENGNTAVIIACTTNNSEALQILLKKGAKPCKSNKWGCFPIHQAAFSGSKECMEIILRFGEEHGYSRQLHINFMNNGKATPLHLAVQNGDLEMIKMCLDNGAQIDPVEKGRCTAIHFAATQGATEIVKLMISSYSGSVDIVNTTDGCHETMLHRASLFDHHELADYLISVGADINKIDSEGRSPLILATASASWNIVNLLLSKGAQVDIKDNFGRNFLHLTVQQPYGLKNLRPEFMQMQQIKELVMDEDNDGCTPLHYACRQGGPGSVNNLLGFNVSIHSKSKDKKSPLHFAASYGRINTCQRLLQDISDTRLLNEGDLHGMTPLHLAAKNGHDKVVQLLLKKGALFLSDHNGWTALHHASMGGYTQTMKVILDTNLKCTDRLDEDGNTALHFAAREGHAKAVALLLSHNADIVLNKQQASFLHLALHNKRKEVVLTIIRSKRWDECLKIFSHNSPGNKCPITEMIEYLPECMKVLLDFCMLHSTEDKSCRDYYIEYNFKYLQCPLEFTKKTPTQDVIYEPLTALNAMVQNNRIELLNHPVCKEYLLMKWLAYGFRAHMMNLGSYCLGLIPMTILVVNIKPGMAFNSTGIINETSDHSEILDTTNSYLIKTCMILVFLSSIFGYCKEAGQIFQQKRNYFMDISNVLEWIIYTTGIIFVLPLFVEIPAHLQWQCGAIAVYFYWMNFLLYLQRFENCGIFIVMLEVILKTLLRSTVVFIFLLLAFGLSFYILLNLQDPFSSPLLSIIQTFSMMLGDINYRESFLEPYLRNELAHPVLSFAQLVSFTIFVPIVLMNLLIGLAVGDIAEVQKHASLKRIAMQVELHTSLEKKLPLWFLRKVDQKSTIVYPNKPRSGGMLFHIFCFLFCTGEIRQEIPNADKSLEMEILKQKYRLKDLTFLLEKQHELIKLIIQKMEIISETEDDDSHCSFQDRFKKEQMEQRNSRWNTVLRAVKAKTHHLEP

[18] = Volume of distribution in Sprague-Dawley rat at 20 mg/kg, po measured after 12 hrs post dose by UPLC-QTOF/MS analysis; type: ADME, organism-based; details: in vivo
[19] = Toxicity in rat assessed as increase in body temperature at 30 mg/kg, po measured for 180 mins by electric probe thermometer analysis; type: organism-based; details: in vivo, 3 h
[20] = Drug concentration in rat plasma at 10 mg/kg, iv measured after 0.5 hrs by HPLC analysis; type: ADME, organism-based
[21] = Elimination rate constant (K10) in Sprague-Dawley rat at 20 mg/kg, po measured after 12 hrs by UPLC-QTOF/MS analysis; type: ADME, organism-based; details: in vivo
[22] = MRT in Sprague-Dawley rat at 10 mg/kg, iv measured after 12 hrs by UPLC-QTOF/MS analysis; type: ADME, organism-based; details: in vivo
[23] = AUC (0 to infinity) in Sprague-Dawley rat at 10 mg/kg, iv by UPLC-QTOF/MS analysis; type: ADME, organism-based; design: time infinity, dose 10 mg/kg, route iv; details: in vivo
[24] = biological target: Transient receptor potential cation channel subfamily M member 8 (Homo sapiens, UniProt Q7Z2W7); assay: Antagonist activity against human TRPM8 expressed in HEK293 cells assessed as inhibition of […]-gated currents by whole cell patch clamp electrophysiology; type: cell-based
Chain of Transient receptor potential cation channel subfamily M member 8 (Q7Z2W7 whole entry): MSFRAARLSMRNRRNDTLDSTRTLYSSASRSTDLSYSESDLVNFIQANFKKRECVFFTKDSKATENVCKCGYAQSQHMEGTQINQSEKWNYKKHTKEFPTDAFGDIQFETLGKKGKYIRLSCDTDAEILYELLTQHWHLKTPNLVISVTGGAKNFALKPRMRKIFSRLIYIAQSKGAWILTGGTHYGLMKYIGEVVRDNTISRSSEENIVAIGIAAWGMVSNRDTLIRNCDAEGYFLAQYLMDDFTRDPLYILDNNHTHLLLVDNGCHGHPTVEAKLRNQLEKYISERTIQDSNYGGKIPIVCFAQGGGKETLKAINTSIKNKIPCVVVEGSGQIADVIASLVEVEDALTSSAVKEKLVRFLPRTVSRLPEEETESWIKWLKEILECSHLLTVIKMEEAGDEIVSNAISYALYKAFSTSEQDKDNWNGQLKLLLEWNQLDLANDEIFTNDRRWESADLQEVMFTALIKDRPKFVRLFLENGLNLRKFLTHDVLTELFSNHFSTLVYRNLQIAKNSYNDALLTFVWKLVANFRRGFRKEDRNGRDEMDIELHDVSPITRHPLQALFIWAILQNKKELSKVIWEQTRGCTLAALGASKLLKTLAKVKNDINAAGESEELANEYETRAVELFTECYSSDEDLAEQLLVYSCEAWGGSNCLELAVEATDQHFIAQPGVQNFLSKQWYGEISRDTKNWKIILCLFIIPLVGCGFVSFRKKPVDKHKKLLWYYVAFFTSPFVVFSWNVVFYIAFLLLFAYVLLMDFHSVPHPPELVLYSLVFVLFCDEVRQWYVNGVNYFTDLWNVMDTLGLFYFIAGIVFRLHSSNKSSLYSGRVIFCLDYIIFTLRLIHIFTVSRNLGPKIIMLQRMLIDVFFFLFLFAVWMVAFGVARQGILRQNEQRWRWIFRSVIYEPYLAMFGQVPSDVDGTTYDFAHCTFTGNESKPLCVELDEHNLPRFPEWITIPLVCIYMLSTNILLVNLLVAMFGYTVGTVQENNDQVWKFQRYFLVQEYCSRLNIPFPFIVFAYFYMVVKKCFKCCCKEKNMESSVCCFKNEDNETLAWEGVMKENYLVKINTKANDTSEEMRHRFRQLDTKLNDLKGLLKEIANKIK

Compound: CC(C)c1cccc(NC(=O)N2CCC[C@H]2c2ncc(-c3ccccc3)s2)c1
half-life [2]: 31.6 min | bioavailability [3]: 60% | clearance [4]: 367 mL/min/kg | half-life [5]: 6.36 min | Activity [6]: Non-Toxic | Cmax [7]: 311 ng/mL | AUC [8]: 598.873 ng·h/mL | clearance [9]: 400 mL/min/kg | Tmax [10]: 42.7 min | MRT [11]: 85.6 min | concentration at 0.5 h [12]: 2310 ng/g | IC50 [13]: > 100000 nM | k el at 12 h [14]: 0.00335 s⁻¹ | solubility at 2 h [15]: 26 µg/mL (≈ 66.4 µM) | Kp at 0.5 h [16]: 1.66 | IC50 [17]: > 100000 nM | Vd [18]: 16 L/kg | Activity [19]: Non-Toxic | concentration at 0.5 h [20]: 1400 ng/g | k el at 12 h [21]: 0.000315 s⁻¹ | MRT [22]: 9.18 min | AUC [23]: 495.955 ng·h/mL | IC50 [1]: 2.66 nM

Compound: O=C(Nc1cccc2cnccc12)N1CCC[C@H]1c1nc(-c2cccc(F)c2)cs1
IC50 [1]: 80.6 nM

Compound: O=C(Nc1cccc2cnccc12)N1CCC[C@H]1c1nc(-c2ccccc2)cs1
IC50 [1]: 67.6 nM

Compound: O=C(Nc1ccccc1Br)N[C@@H]1CCN(c2ccc(C(F)(F)F)cn2)C1 [SB-705498]
IC50 [24]: 1600 nM | Kp at 0.5 h [16]: 0.5 | Activity [19]: Non-Toxic | IC50 [1]: 9.24 nM

Compound: Cc1ccc(NC(=O)N2CCC[C@H]2c2ncc(-c3ccccc3)s2)c([N+](=O)[O-])c1
IC50 [1]: 23.9 nM

Compound: CC(C)c1ccccc1NC(=O)N1CCC[C@H]1c1ncc(-c2ccccc2)s1
IC50 [1]: 5.32 nM

Compound: O=C(Nc1ccccc1[N+](=O)[O-])N1CCC[C@H]1c1ncc(-c2ccccc2)s1
IC50 [1]: 12.4 nM

Second part, led by results:

IC50 [1]: 44.4 nM
Compound: Cc1ccc(C)c(NC(=O)N2CCC[C@H]2c2nc(-c3ccccc3)cs2)c1

IC50 [1]: 10.7 nM
Compound: O=C(Nc1ccc(Cl)cc1)N1CCC[C@H]1c1nc(-c2ccc(F)cc2)cs1

IC50 [1]: 24.6 nM
Compound: O=C(Nc1ccc(F)cc1)N1CCC[C@H]1c1nc(-c2ccc(F)cc2)cs1

IC50 [1]: 31.6 nM
Compound: O=C(Nc1ccc(F)cc1)N1CCC[C@H]1c1nc(-c2ccccc2)cs1

IC50 [1]: 24.3 nM
Compound: O=C(Nc1cccc2cnccc12)N1CCC[C@H]1c1nc(-c2ccc(F)cc2)cs1

IC50 [1]: 5.71 nM
Compound: COc1ccccc1NC(=O)N1CCC[C@H]1c1nc(-c2ccc(F)cc2)cs1
Activity [19]: Toxic
